This is an account of results in patent publication US10973779B2, “Astaxanthin compound composition and the method thereof” (Bioptik Technology, Inc., priority 2019, dated 2021).

SMILES strings stand for the structures.

What all share (format): in vivo, Syrian hamsters
Assay [1] has as its system hamsters fed with high cholesterol diet. Nature of the assay: Animal experiments on lowering blood lipids: serum lipid profile. On the procedure: Male Syrian hamsters aged 6-7 weeks were tested for evaluating the effects of lowering blood lipid profile. Animals were divided into 6 groups, 8 hamsters in each group with a total of 48 hamsters. The experiment was conducted for 8 weeks, and the dosing method was oral gavage, and the animals of experimental groups were fed with the astaxanthin compound composition prepared according to the present invention. The dosage used was calculated according to the dosage for adult human. […] Based on this dosage, the 1×, 2× and 3× dosages were respectively defined for the following testing. The animals were fed with 1× (the converted dosage for hamster is 30.83 mg/kg), 2× (the converted dosage for hamster is 61.67 mg/kg) and 3× (the converted dosage for hamster is 92.50 mg/kg) dosages. At the same time, the clinically used anti-hyperlipidemic drug, Probucol, was used as comparison for evaluating the anti-hyperlipidemic effect. [table] Biostatistical analysis method: the results of the experiment were statistically tested based on one-way ANOVA by using SPSS 10.1 system. Then, the difference among the groups was tested by Duncan's Multiple Range Test. When the p value is smaller than 0.05 (P<0.05), it indicates statistically significant difference. The experimental animals were sacrificed to have blood drawn and the results of total cholesterol (TC) and triglyceride (TG) were shown in Table 2. […] Please continue to refer to Table 2 for the effects of astaxanthin compound composition on high-density lipoprotein cholesterol (HDL-C), low-density lipoprotein cholesterol (LDL-C) in hamsters fed with high cholesterol diet.

Assay [2] has the same test system. Kind of assay: Animal experiments on lowering blood lipids: total cholesterol and triglyceride in the feces. As to conditions: Positive control (P), 124 mg/kg oral gavage, 8 weeks. The protocol: Male Syrian hamsters aged 6-7 weeks were tested for evaluating the effects of lowering blood lipid profile. Animals were divided into 6 groups, 8 hamsters in each group with a total of 48 hamsters. The experiment was conducted for 8 weeks, and the dosing method was oral gavage, and the animals of experimental groups were fed with the astaxanthin compound composition prepared according to the present invention. The dosage used was calculated according to the dosage for adult human. […] Based on this dosage, the 1×, 2× and 3× dosages were respectively defined for the following testing. The animals were fed with 1× (the converted dosage for hamster is 30.83 mg/kg), 2× (the converted dosage for hamster is 61.67 mg/kg) and 3× (the converted dosage for hamster is 92.50 mg/kg) dosages. At the same time, the clinically used anti-hyperlipidemic drug, Probucol, was used as comparison for evaluating the anti-hyperlipidemic effect. [table] Biostatistical analysis method: the results of the experiment were statistically tested based on one-way ANOVA by using SPSS 10.1 system. Then, the difference among the groups was tested by Duncan's Multiple Range Test. When the p value is smaller than 0.05 (P<0.05), it indicates statistically significant difference. […]

Assay [3] has the same test system. Kind of assay: Animal experiments on lowering blood lipids: total cholesterol and triglyceride in the liver. On the procedure: Male Syrian hamsters aged 6-7 weeks were tested for evaluating the effects of lowering blood lipid profile. Animals were divided into 6 groups, 8 hamsters in each group with a total of 48 hamsters. The experiment was conducted for 8 weeks, and the dosing method was oral gavage, and the animals of experimental groups were fed with the astaxanthin compound composition prepared according to the present invention. The dosage used was calculated according to the dosage for adult human. […] Based on this dosage, the 1×, 2× and 3× dosages were respectively defined for the following testing. The animals were fed with 1× (the converted dosage for hamster is 30.83 mg/kg), 2× (the converted dosage for hamster is 61.67 mg/kg) and 3× (the converted dosage for hamster is 92.50 mg/kg) dosages. At the same time, the clinically used anti-hyperlipidemic drug, Probucol, was used as comparison for evaluating the anti-hyperlipidemic effect. [table] Biostatistical analysis method: the results of the experiment were statistically tested based on one-way ANOVA by using SPSS 10.1 system. Then, the difference among the groups was tested by Duncan's Multiple Range Test. When the p value is smaller than 0.05 (P<0.05), it indicates statistically significant difference. When the concentration of total cholesterol and triglyceride in the liver is too high, the risk of developing fatty liver may increase. According to the present Experimental Example, the concentration changes in total cholesterol and triglyceride in the liver and feces of the tested animals are shown in Table 3.

Setting [4] is: Positive control (P), 124 mg/kg oral gavage, 8 weeks, high cholesterol diet.

On to `CC(C)(Sc1cc(C(C)(C)C)c(O)c(C(C)(C)C)c1)Sc1cc(C(C)(C)C)c(O)c(C(C)(C)C)c1` [Probucol], for which, in assay [1] (setting [4]), the HDL-C in serum worked out at 83 ± 11 mg/dL, the HDL-C/TC in serum is on record as 0.707 ± 0.066, the LDL-C in serum worked out at 31.8 ± 3.9 mg/dL and the LDL-C/HDL-C in serum is listed as 0.392 ± 0.110. In assay [1] (setting [4]), the LDL-C/TC in serum was determined as 0.203 ± 0.032, the “TC (total cholesterol) in serum” value worked out at 157 ± 11 mg/dL and the “TG (triglyceride) in serum” value amounted to 152 ± 14 mg/dL. In addition, the “total cholesterol in blood compared with vehicle control group” value in assay [1] (positive control group, 124 mg/kg, p<0.05) is on record as “significantly lower”. Further, in assay [2], the “feces TC” value worked out at 6.7 ± 0.9 mg/g and the “feces TG” value stood at 15.8 ± 2.8 mg/g. Besides, in assay [3] (setting [4]), the “liver TC” value is reported as 3.80 ± 0.26 mg/g and the “liver TG” value is 13.7 ± 1.5 mg/g. Moreover, in assay [3] (positive control (P) group, 124 mg/kg, p<0.05), the “total cholesterol concentration in the liver compared with vehicle control group” value is reported as “significantly lower”.
